This is an account of results in PubChem BioAssay (NCI).

Values joined by “and” are separate entries in the source; they are usually repeats but may differ in a detail not shown here. Equal values may be shown once.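 A five-concentration, 48-hour dose response in 96-well plates underlies each endpoint, interpolated linearly between surrounding concentrations. GI50 marks 50% less growth. TGI is the concentration that stops growth completely.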 A value given as a limit tells only on which side of the number the result lay.

Among the test systems are TK-10 renal; RPMI-8226 leukemia; SK-MEL-28 melanoma; SK-OV-3 ovarian; ACHN renal; NCI-H522 lung; HCC-2998 colon; SR leukemia; OVCAR-3 ovarian; K-562 leukemia.
Holding throughout (test): NCI-60 cell line screen, 48 h

Consider `COc1cc([C@H]2c3cc4c(cc3O[C@@]3(O)COC(=O)[C@@H]23)OCO4)cc(OC)c1OC`, for which the TGI in the assay with TK-10 renal, in the assay with RPMI-8226 leukemia, with SK-MEL-28 melanoma, in the assay with SK-OV-3 ovarian, in the assay with ACHN renal and with NCI-H522 lung was over 100 µM in each case. The TGI in the assay on HCC-2998 colon, with SR leukemia, in the assay on OVCAR-3 ovarian and with K-562 leukemia was over 100 µM each time.
`CC(=O)Nc1ccc2c(c1)c(C1=C(c3cn(C)c4ccccc34)C(=O)NC1=O)cn2C`: the GI50 with TK-10 renal is 4.21 µM; with RPMI-8226 leukemia, 1.22 µM; in the assay on SK-MEL-28 melanoma it was 3.62 µM; in the assay on SK-OV-3 ovarian, 1.22 µM; in the assay with ACHN renal it was 1.57 µM; with NCI-H522 lung, 0.702 µM. The GI50 in the assay on HCC-2998 colon is over 11.2 µM; in the assay with SR leukemia it was 0.675 µM; with OVCAR-3 ovarian, 0.723 µM; in the assay on K-562 leukemia, 0.926 µM. In addition, the TGI in the assay on TK-10 renal is over 25 µM; in the assay on RPMI-8226 leukemia, over 22.1 µM; in the assay on SK-MEL-28 melanoma it was over 25 µM; with SK-OV-3 ovarian it was over 25 µM; in the assay with ACHN renal, over 25 µM; in the assay with NCI-H522 lung, over 6.59 µM. The TGI with HCC-2998 colon was over 25 µM; with SR leukemia, over 17 µM; with OVCAR-3 ovarian it was 2.16 µM; in the assay on K-562 leukemia, over 25 µM.
Turning to `Cc1nc2c(nc1C)C(=O)c1cc(O)ccc1C2=O`, the TGI in the assay with TK-10 renal was over 100 µM; with RPMI-8226 leukemia, over 79.7 µM; in the assay with SK-MEL-28 melanoma, over 100 µM; with SK-OV-3 ovarian, over 100 µM; with ACHN renal, over 100 µM; in the assay on NCI-H522 lung it was over 100 µM. Also, the TGI with HCC-2998 colon, in the assay on SR leukemia, with OVCAR-3 ovarian and in the assay with K-562 leukemia was over 100 µM each time.
As for `C=C1CC2(OC1=O)C(=O)N(CCCCCCCN1C(=O)C3(CC(=C)C(=O)O3)c3ccccc31)c1ccccc12` (stereo not given), the GI50 in the assay on TK-10 renal was 2.19 µM; in the assay on RPMI-8226 leukemia, 0.841 µM; in the assay with SK-MEL-28 melanoma it was 1.94 µM; with SK-OV-3 ovarian it was 9.97 µM; with ACHN renal, 1.13 µM; with NCI-H522 lung it was 0.82 µM. In addition, the GI50 was 6.44 µM in the assay on HCC-2998 colon, 0.475 µM with SR leukemia, 1.27 µM in the assay with OVCAR-3 ovarian and 0.953 µM in the assay with K-562 leukemia. The TGI with TK-10 renal was found to be 8.32 µM; in the assay on RPMI-8226 leukemia, 3.33 µM; in the assay with SK-MEL-28 melanoma it was 7.3 µM; in the assay on SK-OV-3 ovarian, 37.8 µM; with ACHN renal, 3.07 µM; in the assay on NCI-H522 lung it was 1.85 µM. Besides, the TGI was 13.7 µM in the assay with HCC-2998 colon, 3.58 µM in the assay on SR leukemia, 4.07 µM in the assay with OVCAR-3 ovarian and 6.06 µM in the assay on K-562 leukemia.
As for `CN1CCN(CN2C(=O)C3C4C=CC(C3C2=O)C2C3C(=O)N(CN5CCN(C)CC5)C(=O)C3C42)CC1` (stereo not given), the TGI in the assay with TK-10 renal was over 100 µM; in the assay on RPMI-8226 leukemia it was 59.2 µM and 53.2 µM and 71.5 µM; in the assay on SK-MEL-28 melanoma, 49.3 µM and > 61.8 µM and 35.3 µM; in the assay with SK-OV-3 ovarian it was over 100 µM; in the assay on ACHN renal it was 73.6 µM and > 61.3 µM and 48.5 µM; with NCI-H522 lung, 39.6 µM and 25.4 µM. Further, the TGI was 89.2 µM and 51.5 µM and 79 µM in the assay with HCC-2998 colon; 41.6 µM and 36.2 µM in the assay with SR leukemia; 48.2 µM and 57.6 µM and 75.5 µM in the assay on OVCAR-3 ovarian; 81.4 µM and 55.6 µM and 58.2 µM in the assay with K-562 leukemia. In the assay with SK-OV-3 ovarian, the GI50 is 37.4 µM and 34.1 µM and 80.1 µM.
Consider `COc1cccc(C2CC(C)(N3CCCC3)Oc3cc4c(cc32)OCO4)c1O` (stereo not given), for which the TGI was over 93.9 µM in the assay on TK-10 renal; over 81 µM with RPMI-8226 leukemia; over 51.5 µM in the assay with SK-MEL-28 melanoma; over 100 µM in the assay with SK-OV-3 ovarian; over 100 µM in the assay on ACHN renal; 47.2 µM in the assay on NCI-H522 lung. The TGI with HCC-2998 colon worked out at 48.2 µM; in the assay with SR leukemia it was 31.6 µM; in the assay with OVCAR-3 ovarian it was 46.1 µM; in the assay on K-562 leukemia, 41.9 µM.
With `Cc1cc(-c2ncc(CC(=O)Nc3ccc(-c4cnccn4)cn3)cc2C)ccn1`, the GI50 in the assay on TK-10 renal was 16.4 µM; in the assay with RPMI-8226 leukemia it was 19.2 µM; in the assay on SK-MEL-28 melanoma, 28.2 µM; with SK-OV-3 ovarian, over 100 µM; in the assay with ACHN renal it was 31.5 µM; with NCI-H522 lung, 22.7 µM. The GI50 with HCC-2998 colon was over 100 µM; in the assay with SR leukemia it was 18.4 µM; in the assay with OVCAR-3 ovarian, 41.2 µM; with K-562 leukemia it was 22.2 µM. The TGI with TK-10 renal, with RPMI-8226 leukemia, in the assay on SK-MEL-28 melanoma, in the assay on SK-OV-3 ovarian, in the assay with ACHN renal and in the assay with NCI-H522 lung was over 100 µM in each case. Further, the TGI in the assay with HCC-2998 colon, in the assay on SR leukemia, in the assay with OVCAR-3 ovarian and in the assay with K-562 leukemia was over 100 µM throughout.
Turning to `COc1nc(N(C)O)nc(N(C)O)n1`, the GI50 in the assay with TK-10 renal is 1.97 µM; with RPMI-8226 leukemia, 1.32 µM; with SK-MEL-28 melanoma, 2.41 µM; in the assay on SK-OV-3 ovarian it was 1.75 µM; in the assay with ACHN renal, 0.625 µM; in the assay on NCI-H522 lung it was 2.53 µM. Besides, the GI50 in the assay on HCC-2998 colon was 2.25 µM; in the assay on SR leukemia, 0.391 µM; with OVCAR-3 ovarian, 0.794 µM; in the assay with K-562 leukemia it was 2.94 µM. Besides, the TGI in the assay on TK-10 renal, in the assay on RPMI-8226 leukemia, with SK-MEL-28 melanoma, with SK-OV-3 ovarian, with ACHN renal and in the assay on NCI-H522 lung was over 100 µM each time. Further, the TGI is over 100 µM in the assay with HCC-2998 colon, 4.35 µM in the assay with SR leukemia, over 100 µM in the assay on OVCAR-3 ovarian and over 100 µM with K-562 leukemia.
With `COc1cc(C2C=C(c3cccc(NC(C)=O)c3)Nc3ncnn32)cc(OC)c1OC` (stereo not given), the GI50 in the assay on TK-10 renal was 7.55 µM; with RPMI-8226 leukemia, 3.35 µM; in the assay on SK-MEL-28 melanoma, 0.29 µM; in the assay on SK-OV-3 ovarian, 0.903 µM; with ACHN renal it was 3.47 µM; in the assay on NCI-H522 lung, 1.49 µM. For the same compound, the GI50 in the assay with HCC-2998 colon was 0.0566 µM; with SR leukemia, 0.437 µM; with OVCAR-3 ovarian it was 0.236 µM; with K-562 leukemia, 0.447 µM. In addition, the TGI with TK-10 renal was over 100 µM; with RPMI-8226 leukemia it was 32.5 µM; in the assay on SK-MEL-28 melanoma, over 100 µM; in the assay on SK-OV-3 ovarian, over 100 µM; with ACHN renal, over 100 µM; in the assay on NCI-H522 lung, over 100 µM. In addition, the TGI is 0.489 µM with HCC-2998 colon, 0.645 µM in the assay on OVCAR-3 ovarian and over 44.1 µM with K-562 leukemia.
